Data published in patent publication US11208412B2 (DAEGU-GYEONGBUK MEDICAL INNOVATION FOUNDATION, priority 2017, dated 2021).

Key:
Test in all cases: Kinase selectivity, DiscoverX scanMAX Kinase assay panel (% control)
Format in all cases: binding
[1] = target: T1, kinases of the scanMAX Kinase assay panel (Homo sapiens, UniProt P49840); settings: GSK3A; 1 uM
T1 construct: purchased DiscoverX Co. (contract measurement) scanMAX Kinase assay panel
Method in brief: (§1)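 Compounds were tested at 1 uM (in DMSO) against each panel kinase. % control was calculated as (compound − positive control)/(negative control − positive control)×100, where the positive control gives 0% and DMSO gives 100%. Activity toward a kinase was called at % control <35%.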

[2] = target: T2, kinases of the scanMAX Kinase assay panel (Homo sapiens, UniProt Q8IYT8); settings: kinase ULK2; 1 uM in DMSO
T2 construct: purchased DiscoverX Co. (contract measurement) scanMAX Kinase assay panel
T2 sequence (Q8IYT8 1-1036): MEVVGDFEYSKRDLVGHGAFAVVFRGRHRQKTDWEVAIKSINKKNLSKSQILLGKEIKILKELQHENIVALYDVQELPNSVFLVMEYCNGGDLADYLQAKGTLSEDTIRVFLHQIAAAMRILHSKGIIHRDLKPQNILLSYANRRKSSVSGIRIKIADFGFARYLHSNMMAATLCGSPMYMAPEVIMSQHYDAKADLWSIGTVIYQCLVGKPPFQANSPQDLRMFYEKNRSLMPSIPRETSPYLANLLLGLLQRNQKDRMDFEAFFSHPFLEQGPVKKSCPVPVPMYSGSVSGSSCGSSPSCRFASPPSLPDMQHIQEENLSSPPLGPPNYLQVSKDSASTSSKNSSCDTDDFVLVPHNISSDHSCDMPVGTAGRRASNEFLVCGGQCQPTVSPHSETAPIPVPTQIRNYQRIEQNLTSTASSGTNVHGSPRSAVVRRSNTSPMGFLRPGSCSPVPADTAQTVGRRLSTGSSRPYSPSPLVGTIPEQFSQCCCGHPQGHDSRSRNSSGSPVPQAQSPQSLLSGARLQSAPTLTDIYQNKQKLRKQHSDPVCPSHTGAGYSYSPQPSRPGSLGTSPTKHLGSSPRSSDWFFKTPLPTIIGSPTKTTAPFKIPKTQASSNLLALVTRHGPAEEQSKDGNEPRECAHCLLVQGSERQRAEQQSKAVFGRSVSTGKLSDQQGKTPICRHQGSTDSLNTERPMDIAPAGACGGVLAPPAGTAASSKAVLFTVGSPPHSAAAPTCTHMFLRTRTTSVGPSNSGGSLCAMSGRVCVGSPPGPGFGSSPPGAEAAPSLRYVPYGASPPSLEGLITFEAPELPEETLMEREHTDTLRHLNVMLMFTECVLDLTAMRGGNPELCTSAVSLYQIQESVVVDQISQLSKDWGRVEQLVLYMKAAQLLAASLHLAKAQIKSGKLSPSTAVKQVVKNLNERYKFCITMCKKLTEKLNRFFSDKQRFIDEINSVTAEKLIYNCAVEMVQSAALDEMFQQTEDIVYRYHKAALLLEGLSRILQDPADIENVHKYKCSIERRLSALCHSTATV
Method in brief: as §1

[3] = target: T3, kinases of the scanMAX Kinase assay panel (Homo sapiens, UniProt O75385); settings: kinase ULK1; 1 uM in DMSO
T3 construct: purchased DiscoverX Co. (contract measurement) scanMAX Kinase assay panel
T3 sequence (O75385 1-1050): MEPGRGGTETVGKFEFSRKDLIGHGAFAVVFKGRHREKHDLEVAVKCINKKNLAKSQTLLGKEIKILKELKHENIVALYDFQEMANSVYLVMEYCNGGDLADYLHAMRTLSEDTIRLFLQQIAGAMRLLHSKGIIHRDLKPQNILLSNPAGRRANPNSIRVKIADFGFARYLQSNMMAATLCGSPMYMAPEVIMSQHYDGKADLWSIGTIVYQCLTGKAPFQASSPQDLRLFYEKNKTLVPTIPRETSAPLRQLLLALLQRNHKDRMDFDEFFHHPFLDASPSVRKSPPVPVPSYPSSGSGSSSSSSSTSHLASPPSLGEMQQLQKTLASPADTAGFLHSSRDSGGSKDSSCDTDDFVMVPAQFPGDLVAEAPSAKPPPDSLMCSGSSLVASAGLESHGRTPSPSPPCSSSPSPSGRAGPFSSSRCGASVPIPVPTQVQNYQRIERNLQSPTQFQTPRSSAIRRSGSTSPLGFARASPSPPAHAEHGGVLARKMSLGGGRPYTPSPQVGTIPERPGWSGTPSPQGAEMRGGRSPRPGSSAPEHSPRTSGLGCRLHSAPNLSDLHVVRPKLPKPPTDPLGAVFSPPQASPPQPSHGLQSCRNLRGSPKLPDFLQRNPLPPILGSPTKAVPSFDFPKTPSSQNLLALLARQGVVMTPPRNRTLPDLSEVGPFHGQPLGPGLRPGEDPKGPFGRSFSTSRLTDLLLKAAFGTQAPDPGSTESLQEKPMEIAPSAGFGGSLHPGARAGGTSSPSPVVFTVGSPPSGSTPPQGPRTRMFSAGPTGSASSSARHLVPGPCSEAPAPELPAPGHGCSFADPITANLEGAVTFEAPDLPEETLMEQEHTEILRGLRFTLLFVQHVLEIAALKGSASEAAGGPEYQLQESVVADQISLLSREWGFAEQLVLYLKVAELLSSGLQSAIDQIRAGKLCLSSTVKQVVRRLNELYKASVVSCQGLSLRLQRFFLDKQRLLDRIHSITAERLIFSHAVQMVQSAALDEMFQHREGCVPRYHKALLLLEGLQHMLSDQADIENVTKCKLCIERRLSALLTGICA
Method in brief: as §1

[4] = target: T4, kinases of the scanMAX Kinase assay panel (Homo sapiens, UniProt P52564); settings: MEK6; 1 uM
T4 construct: purchased DiscoverX Co. (contract measurement) scanMAX Kinase assay panel
T4 sequence (P52564 1-334): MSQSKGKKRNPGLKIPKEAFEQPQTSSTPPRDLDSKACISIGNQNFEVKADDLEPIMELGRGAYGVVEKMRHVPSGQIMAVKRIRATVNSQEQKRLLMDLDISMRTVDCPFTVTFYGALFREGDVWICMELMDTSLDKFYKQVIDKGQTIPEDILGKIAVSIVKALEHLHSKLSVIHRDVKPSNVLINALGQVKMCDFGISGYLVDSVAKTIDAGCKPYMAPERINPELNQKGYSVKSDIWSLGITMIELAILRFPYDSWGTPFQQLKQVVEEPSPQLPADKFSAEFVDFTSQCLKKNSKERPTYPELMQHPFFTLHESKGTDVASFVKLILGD
Method in brief: as §1

T1 sequence (P49840 whole entry): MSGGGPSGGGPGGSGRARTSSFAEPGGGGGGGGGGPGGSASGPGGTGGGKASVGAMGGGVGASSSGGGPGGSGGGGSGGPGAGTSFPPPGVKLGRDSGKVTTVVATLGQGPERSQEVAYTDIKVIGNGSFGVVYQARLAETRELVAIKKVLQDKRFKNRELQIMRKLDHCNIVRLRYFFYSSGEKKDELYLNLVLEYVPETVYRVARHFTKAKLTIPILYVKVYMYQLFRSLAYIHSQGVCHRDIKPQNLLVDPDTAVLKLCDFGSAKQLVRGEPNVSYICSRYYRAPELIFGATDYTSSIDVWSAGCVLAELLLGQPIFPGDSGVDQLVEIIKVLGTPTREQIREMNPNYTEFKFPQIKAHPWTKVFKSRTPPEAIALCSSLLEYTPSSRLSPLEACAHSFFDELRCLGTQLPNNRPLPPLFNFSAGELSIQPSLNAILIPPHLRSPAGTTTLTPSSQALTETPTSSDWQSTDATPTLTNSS

SMILES	remaining binding at 1 µM [1] [%]	remaining binding at 1 µM [2] [%]	remaining binding at 1 µM [3] [%]	remaining binding at 1 µM [4] [%]
CCNc1nc(Nc2ccc(C(=O)N3CCC(N4CCOCC4)CC3)cc2OC)nc2[nH]cc(C(F)(F)F)c12 [Example 104, (4-((4-(ethylamino)-5-(trifluoromethyl)-7H-pyrrolo[2,3-d]pyrimidine-2-yl)amino)-3-methoxyphenyl)(4-morpholinopiperidine-1-yl)methanone]	100	100	100	92
CNc1nc(Nc2ccc(C(=O)N3CCOCC3)cc2OC)nc2[nH]cc(C#N)c12 [Example 1, 2-((2-methoxy-4-(morpholine-4-carbonyl)phenyl)amino)-4-(methylamino)-7H-pyrrolo[2,3-d]pyrimidine-5-carbonitrile]	100	75	75	43
CC1(Nc2nc(Nc3cnn([C@H]4CCN(C5COC5)C[C@@H]4F)c3Cl)nc3[nH]cc(C#N)c23)CC1 [Example 52, 2-((5-chloro-1-((3S,4S)-3-fluoro-1-(oxetane-3-yl)piperidine-4-yl)-1H-pyrazole-4-yl)amino)((1-methylcyclopropyl)amino)-7H-pyrrolo[2,3-d]pyrimidine-5-carbonitrile]	12	15	20	19
